Experimental data reported in PubChem BioAssay (NCI).
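Where inhibition never reached the appropriate level, the endpoint shown equals the highest concentration tested. Otherwise, values were interpolated linearly from a five-concentration, 48-hour dose response in 96-well plates. TGI: concentration producing complete growth inhibition.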

Legend:
Test in all cases: NCI tumour cell line growth inhibition, 48 h
[1] = test system: SF-295 CNS
[2] = test system: HOP-62 NSCLC
[3] = test system: M14 melanoma
[4] = test system: NCI-H226 lung
[5] = test system: LOX IMVI melanoma
[6] = test system: NCI/ADR-RES ovarian
[7] = test system: MOLT-4 leukemia
[8] = test system: SF-539 CNS
[9] = test system: SK-MEL-2 melanoma
[10] = test system: HCC-2998 colon
[11] = test system: IGROV1 ovarian
[12] = test system: CAKI-1 renal
[13] = test system: BT-549 breast
[14] = test system: SK-MEL-28 melanoma

Compound | TGI [1] [µM] | TGI [2] [µM] | TGI [3] [µM] | TGI [4] [µM] | TGI [5] [µM] | TGI [6] [µM] | TGI [7] [µM] | TGI [8] [µM] | TGI [9] [µM] | TGI [10] [µM] | TGI [11] [µM] | TGI [12] [µM] | TGI [13] [µM] | TGI [14] [µM]
C[C@]12CC/C(=N\OCCN3CCCC3)C=C1CCC1C2CC[C@@]2(C)C1CC[C@]2(C)O (stereo partly specified) | 12.3 | 50 | 37.1 | 11.8 | 15.1 | 15.4 | 12.6 | 22.9 | 44.2 | 24.3 | 35.9 | 24.1 | 28.2 | 
N#Cc1ccc(N=NN2CCCC2)cc1 | > 100 | > 100 | > 100 | > 100 | > 100 | > 100 | > 100 | > 100 | > 100 | > 100 | > 100 | > 100 | > 100 | 
COC(=O)C1=CCC[C@H]2[C@@]1(COC(C)=O)CC[C@@H](C)[C@]2(C)CC(=O)c1ccoc1 | > 50 |  | > 50 | > 50 | 24.7 | > 50 | 31.8 | 24.8 | > 50 | 37.5 | > 50 | > 50 | 31.3 | 
c1ccc2c(c1)n1c(N3CCCC3)[n+]3ccccc3c1c1c3cccc[n+]3c(N3CCCC3)n21 | > 100 |  | > 100 | > 100 | > 100 | > 100 | > 100 | > 100 | > 100 | > 100 | > 100 | > 100 | > 100 | > 100
CCOC1OC(CO[Si](C)(C)C(C)(C)C)C(O)CC1n1ccc(=O)[nH]c1=O (stereo unspecified) | > 100 |  | > 100 | > 100 | 31.6 | > 100 | 69.1 | > 100 | > 100 | > 100 | 48.6 | > 100 | > 100 | > 100
N#Cc1ccccc1NC(=O)C(O)C(O)C(O)C(O)C=O (stereo unspecified) | > 100 |  | > 100 | > 100 | > 100 | > 100 | > 100 | > 100 | > 100 | > 100 | > 100 | > 100 | > 100 | > 100
COc1ccc(-n2c(C)nc3ccc(NC4OC(COC(C)=O)C(OC(C)=O)C(OC(C)=O)C4OC(C)=O)cc3c2=O)cc1 (stereo unspecified) | > 100 | > 100 |  | > 100 | > 100 | > 100 | 80.8 |  | > 100 | > 100 | > 100 | 57.3 | > 100 | > 100
C1=C(c2ccccc2)NC2=N[C@H]3CCCC[C@@H]3N2C1c1ccccc1 (stereo partly specified) | 25.7 |  | 25.5 | 28.9 | 29.6 | 28.7 | 28.3 |  | 32 | 28.4 | 26 | 29.6 | 24 | 27.4
O=C(Cn1c(C(=O)/C=C/c2ccc(Cl)c(Cl)c2)nc2ccccc21)c1ccccc1 |  | > 100 | 72.2 | > 100 | 39.1 | 73 | > 100 | 48.2 | 47.1 | 35.8 | 79 |  | 99.3 | > 100
COC(=O)/C=C1\C(=O)Nc2ccc(Br)cc21 | 5.07 | 4.61 | 6.03 | 4.03 | 2.25 | 4.49 | 4.01 |  | 1.77 | 4.58 | 3.63 | 3.87 | 3.88 | 8.43
COc1ccc(-n2c(C)nc3ccc(NC4OCC(OC(C)=O)C(OC(C)=O)C4OC(C)=O)cc3c2=O)cc1 (stereo unspecified) | > 100 | > 100 |  | > 100 | > 100 | > 100 | > 100 |  | > 100 | > 100 | > 100 | > 100 | > 100 | > 100
C=C(Cl)C(Cl)(CBr)CCCC(C)C (stereo unspecified) | 30 | 27 | > 100 | > 100 | > 100 | > 80.4 | > 100 | 22.7 |  | 34.1 | > 100 | 12.1 | > 100 | 37.3
Fc1nc(-c2c3ccccc3c3sc4ccccc4n23)nc(N2CCOCCOCCOCCOCC2)n1 | > 100 | > 100 | > 100 | > 100 | > 100 | > 100 | > 100 | > 100 |  | > 100 | > 100 | > 100 | > 100 | > 100
CC1=NN(c2ccccc2Cl)C2(C1)C(Cl)C(=O)N2c1nc2ccccc2s1 (stereo unspecified) | > 100 | > 100 | > 100 | > 100 | 33.7 | > 100 | 91.6 |  | > 100 | > 100 | > 100 | > 100 | > 100 | 
